Assay results from patent US20260021106A1, “COMBINATION THERAPY FOR TREATING CANCERS” (GEISTLICH PHARMA AG, priority 2022, published 2026).
“Also recorded” adds a separate entry of the source.

Key:
AKT [1] = test: Western blotting of ovarian cancer cells, AKT; type: cell-based, human; details: treated 24 hours, Western blot
Experimental: (§1) GP-2250 inhibits mTOR, AKT and HIF-1α expression.
(§2) Human Ovarian cancer cell lines: A2780, Coav3, HeyA8, HeyA8-MDR, Kuramochi, OVCAR3, OVCAR5, OVCAR8, and SKOV3 were obtained and used in studies.
(§3) In vitro assays: Cell viability assay, Western blotting, Colony formation assay, Reverse-phase protein array, and Ultra-high resolution mass spectrometry analysis were performed.

mTOR [2] = test: Western blotting of ovarian cancer cells, mTOR; type: cell-based, human; details: treated 24 hours, Western blot
Experimental: as §1, §2, §3

mTOR [3] = test: In vivo pharmacodynamic experiment, OVCAR8 mouse model, mTOR; details: dose of 500 mg/kg
Experimental: (§4) In vivo model of ovarian cancer: Pharmacodynamic study and therapeutic experiment using OVCAR8 ovarian cancer model were performed. FIGS. 8A-8B show the cytotoxic effect of GP-2250 on ovarian cancer cells.
(§5) FIGS. 11A-11B show pharmacodynamics studies of GP-2250.

AKT [4] = test: Reverse Phase Protein Array (RPPA), AKT; type: cell-based, human
Experimental: as §3

hexokinase 2 = test: Hexokinase activity and expression (ultra-high resolution mass spectrometry, FIG. 10); type: cell-based, human
Experimental: as §3
(§6) (ns, not significant, **P<0.01; **P<0.001 (vs. control; Student t-test)).

OVCAR8-L = test: In vivo therapy experiment, orthotopic OVCAR8-L ovarian cancer mouse model; set-up: species or system mice; details: GP-2250 500 mg/kg 3 times per week, bevacizumab 6.25 mg/kg, take down day 49
Experimental: FIG. 5 schematically illustrates the experimental design for in vivo testing of the GP-2250 and bevacizumab on OVCAR8-L mice. The experiment includes testing: 1) IgG control (10 mice, 6.25 mg/kg, BW); 2) GP-2250 (10 mice, 500 mg/kg. 3 times per week); 3) Bevacizumab (10 mice, 6.25 mg/kg, BW) (“BEV”); and 4) the combination of GP-2250 and Bevacizumab.
Tumorigenicity of OVCAR8-L was determined using IVIS imaging. IVIS imaging following OCVAR8-L injection. 1×10^6 cells were injected through i.p., and then tumorigenicity was measured. All mice were injected with high-grade ovarian cancer cells (OVCAR8) labeled with luciferase gene by i.p. route. All mice survived until the end of the study. No mice were euthanized due to the effect of tumor. Five weeks after treatment, all mice were euthanized, body weight was measured, and no significant body weight change in each group.
as §4

mTOR [5] = test: Reverse Phase Protein Array (RPPA), mTOR; type: cell-based, human
Experimental: as §3

AKT [6] = test: In vivo pharmacodynamic experiment, OVCAR8 mouse model, AKT; details: dose of 500 mg/kg
Experimental: as §4, §5

[7] = system: human endothelial cell (hEC) spheroids; test: Spheroid assay, VEGF-induced endothelial sprouting; type: cell-based
Experimental: A spheriod assay was performed including growing human endothelial cell (hEC) spheroids and adding VEGF (1000 cells/spheroid; 200 sph/condition) for 24 hours using a hanging drog procedure with methyl-cellulose, then harvesting, adding GP-2250, and suspending in fibrinogen/thrombin matrix. The suspension was then transferred to a 24 well plate and incubated for 24 hours at 37° C. FIG. 1: VEGF-induced Endothelial Sprouting: Impact of GP-2250, Spheroid assay. […] Tip cells form sprouts, and stalk cells form capillary lumen as shown in the image (bottom).
FIG. 4 quantifies the effects of PBS control, Delta-like 4 (DLL4), and GP-2250 (at 2.5 μg/ml or at 10 μg/ml) on VEGF-induced endothelial cell sprouting.

HIF1α = test: Western blotting of ovarian cancer cells, HIF1α; type: cell-based, human; details: treated 24 hours, Western blot
Experimental: as §1, §2, §3

[8] = system: hypoxia-inducible factor-la; test: Reverse Phase Protein Array (RPPA), HIF-1α; type: cell-based, human
Experimental: as §3

cancer cells = test: Glycolysis and ATP synthesis in cancer cells; type: cell-based
Excerpt: as §6

ovarian cancer cells = test: Cell viability assay / cytotoxic effect in ovarian cancer cell lines; type: cell-based, human
Experimental: as §2, §3, §4

VEGF = VEGF secretion in cancer cells; type: cell-based; details: compared to vehicle
Excerpt: as §1

[9] = 2.5 μg/ml or 10 μg/ml, compared to control

O=S1(=O)CCOCN1 [GP-2250]
AKT expression (AKT [1]): inhibits | mTOR expression (mTOR [2]): inhibits | downregulating mTOR activation and expression (mTOR [3]): most effective | AKT activation and expression level (AKT [4]): inhibited | hexokinase activity and protein expression levels (hexokinase 2; FIG. 10C): inhibits hexokinase activity and protein expression levels | hexokinase 2 activity and expression (hexokinase 2; ultra-high resolution mass spectrometry (HRMS) analysis): significantly reduced | nodules (tumor nodule number) (OVCAR8-L): 2.9±0.48 | tumor weight (OVCAR8-L): 2.9 ± 0.48 g | mTOR activation and expression level (mTOR [5]): inhibited | downregulating AKT activation and expression (AKT [6]): most effective | number of sprouts per spheroid [7, 9]: statistically significant reductions | total sprout length [7, 9]: statistically significant reductions | VEGF-induced endothelial cell sprouting ([7]; GP-2250 10 μg/ml, 24 hours): inhibits VEGF-induced endothelial cell sprouting | HIF1α expression in cancer cells (HIF1α): reduced HIF1α expression | hypoxia-inducible factor-la activation and expression level [8]: inhibited | ATP synthesis in cancer cells (cancer cells): reduced | glycolysis in cancer cells (cancer cells): decreases glycolysis; also recorded: reduced glycolysis | apoptosis in ovarian cancer cells (ovarian cancer cells): increased apoptosis | proliferation in ovarian cancer cells (ovarian cancer cells): reduced proliferation | cancer cell viability (ovarian cancer cells; FIG. 10D, with siRNA targeting hexokinase 1 and hexokinase 2): reduces cancer cell viability | cytotoxic effect, vulnerability of HRD versus HRP ovarian cancer cells (ovarian cancer cells; HRD (Kuramochi, OVCAR4, OVCAR8) vs HRP (A2780, OVCAR5), 10 ovarian cancer cell lines): more vulnerable to GP-2250 than Homologous Recombination Proficiency (HRP) ovarian cancer cells | VEGF secretion in cancer cells (VEGF): significantly reduced VEGF secretion

bevacizumab: recombinant humanized monoclonal IgG1 antibody that specifically binds to and blocks the biological effects of VEGF [reference compound]
nodules (tumor nodule number) (OVCAR8-L): 3.8±0.71 | tumor weight (OVCAR8-L): 0.43 ± 0.08 g
